Like-named read-outs stand apart in the source and are kept apart here.
Assays:
ABCC1/MRP1 = ABCC1/MRP1 (Homo sapiens, UniProt P33527); assay: in vitro
ABCB1/MDR1/Pgp [1] = molecular target: T1, ABCB1/MDR1/Pgp (Homo sapiens, UniProt P08183); conditions: HEK-293/ABCB1 membrane vesicles
OATP2B1 [2] = molecular target: T2, OATP2B1 (Homo sapiens, UniProt O94956); conditions: A431-OATP2B1 cells, pyranine uptake
T2 sequence (O94956 1-709): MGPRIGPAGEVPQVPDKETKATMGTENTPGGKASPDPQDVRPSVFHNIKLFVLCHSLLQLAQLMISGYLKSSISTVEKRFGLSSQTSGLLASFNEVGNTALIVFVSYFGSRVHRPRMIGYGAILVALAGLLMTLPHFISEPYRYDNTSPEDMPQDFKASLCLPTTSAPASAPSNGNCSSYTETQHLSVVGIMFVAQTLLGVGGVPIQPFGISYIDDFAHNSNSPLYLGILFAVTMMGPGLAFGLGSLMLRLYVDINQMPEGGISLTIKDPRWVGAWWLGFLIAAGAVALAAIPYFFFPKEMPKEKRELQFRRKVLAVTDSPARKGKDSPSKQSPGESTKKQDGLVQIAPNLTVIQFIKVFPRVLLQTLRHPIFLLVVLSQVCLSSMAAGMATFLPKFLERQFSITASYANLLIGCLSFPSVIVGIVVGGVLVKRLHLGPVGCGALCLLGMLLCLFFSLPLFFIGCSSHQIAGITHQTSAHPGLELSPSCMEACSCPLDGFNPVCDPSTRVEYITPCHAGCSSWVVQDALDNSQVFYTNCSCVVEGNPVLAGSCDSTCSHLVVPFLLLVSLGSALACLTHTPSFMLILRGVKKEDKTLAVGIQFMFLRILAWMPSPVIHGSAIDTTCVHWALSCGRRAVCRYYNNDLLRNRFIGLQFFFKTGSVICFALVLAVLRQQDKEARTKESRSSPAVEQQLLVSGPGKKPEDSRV

OATP2B1 [3] = molecular target: T2, OATP2B1; assay: in vitro; conditions: A431 cells overexpressing OATP2B1, pH 5.5, probe pyranine, 20 µM
ABCB1/MDR1/Pgp [4] = molecular target: T1, ABCB1/MDR1/Pgp; assay: in vitro
OATP2B1 [5] = molecular target: T2, OATP2B1; assay: cell-based
OATP1A2 = molecular target: T3, OATP1A2 (Homo sapiens, UniProt P46721); assay: cell-based
T3 sequence (P46721 1-670): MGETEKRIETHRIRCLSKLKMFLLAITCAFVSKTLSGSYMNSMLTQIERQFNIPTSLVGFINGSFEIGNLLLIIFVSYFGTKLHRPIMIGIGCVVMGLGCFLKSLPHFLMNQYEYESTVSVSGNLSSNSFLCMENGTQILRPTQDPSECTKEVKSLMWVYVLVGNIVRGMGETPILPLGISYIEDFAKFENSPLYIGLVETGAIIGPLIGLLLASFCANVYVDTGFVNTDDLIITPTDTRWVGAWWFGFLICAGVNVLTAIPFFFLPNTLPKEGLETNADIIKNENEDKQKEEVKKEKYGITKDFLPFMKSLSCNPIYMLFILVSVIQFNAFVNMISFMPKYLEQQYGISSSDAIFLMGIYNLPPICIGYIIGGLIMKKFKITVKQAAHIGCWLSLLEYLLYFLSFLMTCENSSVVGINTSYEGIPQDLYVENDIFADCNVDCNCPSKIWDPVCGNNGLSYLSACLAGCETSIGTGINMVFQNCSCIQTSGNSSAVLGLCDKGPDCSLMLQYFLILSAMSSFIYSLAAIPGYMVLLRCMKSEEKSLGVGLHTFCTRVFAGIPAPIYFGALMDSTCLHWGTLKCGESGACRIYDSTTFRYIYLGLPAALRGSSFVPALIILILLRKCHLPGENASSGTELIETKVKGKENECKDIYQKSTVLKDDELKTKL

wild-type ABCG2 = molecular target: T4, wild-type ABCG2 (Homo sapiens, UniProt Q9UNQ0); assay: Hoechst 33342 dye extrusion in HeLa cells expressing wild-type ABCG2; format: cell-based; conditions: wild-type ABCG2, 0.2 µM Hoechst 33342, full inhibition by 1 µM Ko143
T4 construct: expressed in transfected cells; host or cells: HeLa (Sleeping Beauty transposon system)
T4 sequence (Q9UNQ0 1-655): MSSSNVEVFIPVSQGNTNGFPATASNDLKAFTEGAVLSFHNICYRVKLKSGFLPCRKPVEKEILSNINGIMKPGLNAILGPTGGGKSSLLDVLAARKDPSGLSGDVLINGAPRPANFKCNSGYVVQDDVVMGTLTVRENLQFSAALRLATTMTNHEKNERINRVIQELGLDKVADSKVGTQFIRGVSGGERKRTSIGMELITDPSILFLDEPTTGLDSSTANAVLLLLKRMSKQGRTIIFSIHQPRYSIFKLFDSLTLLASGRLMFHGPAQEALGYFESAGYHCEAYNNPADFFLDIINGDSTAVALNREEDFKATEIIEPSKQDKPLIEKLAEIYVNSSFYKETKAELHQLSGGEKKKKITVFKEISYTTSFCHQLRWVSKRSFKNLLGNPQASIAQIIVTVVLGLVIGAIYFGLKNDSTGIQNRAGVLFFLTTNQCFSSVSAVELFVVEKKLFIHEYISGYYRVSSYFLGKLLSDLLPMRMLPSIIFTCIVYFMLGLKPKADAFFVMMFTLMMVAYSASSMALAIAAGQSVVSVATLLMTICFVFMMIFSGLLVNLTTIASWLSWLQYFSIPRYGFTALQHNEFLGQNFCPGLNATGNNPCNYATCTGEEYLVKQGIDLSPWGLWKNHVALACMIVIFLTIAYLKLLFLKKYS

ABCB1/MDR1/Pgp [6] = molecular target: T1, ABCB1/MDR1/Pgp; assay: biochemical; conditions: Estimated Transporter Inhibition IC50, ABCB1 vesicular assay, ATP-dependent NMQ uptake, HEK-293/ABCB1 inverted membrane vesicles; '-' = no inhibition

T1 sequence (P08183 whole entry): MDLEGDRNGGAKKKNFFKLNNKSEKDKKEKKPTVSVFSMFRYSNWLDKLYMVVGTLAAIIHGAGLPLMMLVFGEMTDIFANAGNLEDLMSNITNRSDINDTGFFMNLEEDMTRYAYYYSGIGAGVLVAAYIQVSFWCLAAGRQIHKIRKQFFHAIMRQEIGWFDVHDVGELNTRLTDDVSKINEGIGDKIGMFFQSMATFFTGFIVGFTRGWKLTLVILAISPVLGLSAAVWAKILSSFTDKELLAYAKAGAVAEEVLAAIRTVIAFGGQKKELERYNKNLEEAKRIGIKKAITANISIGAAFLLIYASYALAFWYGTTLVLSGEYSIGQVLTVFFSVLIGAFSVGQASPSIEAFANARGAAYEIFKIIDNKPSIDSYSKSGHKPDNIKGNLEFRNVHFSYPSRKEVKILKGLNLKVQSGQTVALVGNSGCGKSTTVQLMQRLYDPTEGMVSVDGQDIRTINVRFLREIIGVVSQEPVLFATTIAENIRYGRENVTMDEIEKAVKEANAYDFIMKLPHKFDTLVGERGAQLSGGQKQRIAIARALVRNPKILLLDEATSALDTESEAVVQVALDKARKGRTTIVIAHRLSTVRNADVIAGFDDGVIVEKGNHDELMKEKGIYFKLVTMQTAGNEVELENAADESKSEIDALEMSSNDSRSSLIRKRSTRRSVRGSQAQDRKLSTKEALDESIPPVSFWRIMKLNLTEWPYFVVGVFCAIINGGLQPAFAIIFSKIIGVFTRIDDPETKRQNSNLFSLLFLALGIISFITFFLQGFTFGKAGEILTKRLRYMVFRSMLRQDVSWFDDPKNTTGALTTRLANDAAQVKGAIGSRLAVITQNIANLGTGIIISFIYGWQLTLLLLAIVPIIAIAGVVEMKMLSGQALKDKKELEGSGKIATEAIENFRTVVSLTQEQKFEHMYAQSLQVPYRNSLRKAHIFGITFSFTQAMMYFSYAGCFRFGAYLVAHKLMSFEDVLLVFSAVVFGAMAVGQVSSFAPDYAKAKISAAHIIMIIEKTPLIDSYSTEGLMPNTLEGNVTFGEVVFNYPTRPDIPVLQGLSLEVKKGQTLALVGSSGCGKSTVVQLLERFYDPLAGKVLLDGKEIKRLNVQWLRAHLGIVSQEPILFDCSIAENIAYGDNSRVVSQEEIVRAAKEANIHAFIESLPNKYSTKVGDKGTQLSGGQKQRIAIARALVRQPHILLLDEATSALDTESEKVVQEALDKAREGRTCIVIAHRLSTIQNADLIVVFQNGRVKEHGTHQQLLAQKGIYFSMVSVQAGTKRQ
Sequence of ABCC1/MRP1 (P33527 whole entry): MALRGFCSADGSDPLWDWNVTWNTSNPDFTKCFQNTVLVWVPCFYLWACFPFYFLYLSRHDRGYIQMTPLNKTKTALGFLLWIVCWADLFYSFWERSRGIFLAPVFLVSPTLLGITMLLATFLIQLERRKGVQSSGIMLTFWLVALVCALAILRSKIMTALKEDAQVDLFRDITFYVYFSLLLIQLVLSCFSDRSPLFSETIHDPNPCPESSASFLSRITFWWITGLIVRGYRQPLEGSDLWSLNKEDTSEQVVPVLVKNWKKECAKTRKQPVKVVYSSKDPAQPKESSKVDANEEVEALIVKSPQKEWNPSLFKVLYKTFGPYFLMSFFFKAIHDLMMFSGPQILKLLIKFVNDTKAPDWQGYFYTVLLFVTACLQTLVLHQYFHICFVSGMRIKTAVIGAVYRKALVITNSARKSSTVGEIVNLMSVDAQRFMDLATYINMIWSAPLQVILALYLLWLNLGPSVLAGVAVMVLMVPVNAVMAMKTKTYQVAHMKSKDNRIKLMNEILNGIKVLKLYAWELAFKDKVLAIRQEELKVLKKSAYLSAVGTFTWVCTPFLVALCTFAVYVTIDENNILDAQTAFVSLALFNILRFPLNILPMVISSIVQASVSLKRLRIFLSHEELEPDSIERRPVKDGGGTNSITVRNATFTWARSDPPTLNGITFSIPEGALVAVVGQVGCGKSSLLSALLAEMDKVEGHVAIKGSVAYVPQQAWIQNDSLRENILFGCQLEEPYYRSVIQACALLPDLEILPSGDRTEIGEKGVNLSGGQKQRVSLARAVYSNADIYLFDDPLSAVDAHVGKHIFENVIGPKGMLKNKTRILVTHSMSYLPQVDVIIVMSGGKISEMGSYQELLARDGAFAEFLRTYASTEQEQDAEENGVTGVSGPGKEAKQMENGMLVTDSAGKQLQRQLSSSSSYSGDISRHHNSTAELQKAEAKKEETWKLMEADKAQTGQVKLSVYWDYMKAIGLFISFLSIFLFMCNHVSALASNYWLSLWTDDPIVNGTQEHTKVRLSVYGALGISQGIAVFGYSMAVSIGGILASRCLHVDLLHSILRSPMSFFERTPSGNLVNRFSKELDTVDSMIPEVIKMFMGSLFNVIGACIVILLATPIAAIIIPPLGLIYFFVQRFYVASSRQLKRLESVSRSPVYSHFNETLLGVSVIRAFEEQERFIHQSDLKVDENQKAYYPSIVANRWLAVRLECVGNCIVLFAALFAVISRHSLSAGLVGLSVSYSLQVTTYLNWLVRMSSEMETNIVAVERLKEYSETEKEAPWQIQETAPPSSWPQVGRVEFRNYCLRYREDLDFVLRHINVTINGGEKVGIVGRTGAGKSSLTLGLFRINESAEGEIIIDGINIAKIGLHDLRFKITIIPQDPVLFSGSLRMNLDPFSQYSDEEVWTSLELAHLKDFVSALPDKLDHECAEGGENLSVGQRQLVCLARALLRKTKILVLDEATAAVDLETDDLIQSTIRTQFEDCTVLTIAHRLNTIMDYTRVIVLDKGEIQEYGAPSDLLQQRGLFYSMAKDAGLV

For `NC(=O)c1nc(F)c[nH]c1=O` [favipiravir], the IC50 at 3 min (ABCC1/MRP1; inverted membrane vesicles from Sf9 cells expressing ABCC1, probe 3H-estradiol-17b-glucuronide (ETGB), 0.2 µM) was over 50 µM, the “Effect on ABCB1 ATP-dependent NMQ uptake (in words)” value (ABCB1/MDR1/Pgp [1]) was “no inhibitory effect” and the “Effect on OATP2B1 activity (in words)” value (OATP2B1 [2]) was “no interaction”. For the same compound, the IC50 at 15 min (OATP2B1 [3]) was over 50 µM and the IC50 at 1 min (ABCB1/MDR1/Pgp [4]; probe 3H-N-methyl-quinidine (NMQ), 1 µM) was over 50 µM.
With `CCN(CCO)CCCC(C)Nc1ccnc2cc(Cl)ccc12` (stereo not drawn) [hydroxychloroquine] the IC50 at 3 min (ABCC1/MRP1) was over 50 µM, the “Effect on ABCB1 ATP-dependent NMQ uptake (in words)” value (ABCB1/MDR1/Pgp [1]) was “practically no effect” and the IC50 (OATP2B1 [5]) was 84 µM. The “Effect on OATP2B1 activity (in words)” value (OATP2B1 [2]) was “only modest inhibition”, the IC50 (OATP1A2) was 18.9 µM and the IC50 at 1 min (ABCB1/MDR1/Pgp [4]; Estimated Transporter Inhibition IC50, ABCB1 vesicular assay, ATP-dependent NMQ uptake, HEK-293/ABCB1 inverted membrane vesicles, '-' = no inhibition) was over 50 µM.
With `CCC(CC)COC(=O)[C@H](C)N[P@](=O)(OC[C@H]1O[C@@](C#N)(c2ccc3c(N)ncnn23)[C@H](O)[C@@H]1O)Oc1ccccc1` [remdesivir] the “Effect on Hst dye extrusion by ABCG2 in HeLa cells (in words)” value (wild-type ABCG2) was “slight effect at relatively high concentrations”, the IC50 (OATP2B1 [5]) was 3.8 µM and the IC50 (OATP1A2) was 3.8 µM. It also gave an IC50 (ABCB1/MDR1/Pgp [6]) of over 20 µM.
